Assay results from patent US20230393118A1, “DEVICES AND METHODS FOR MONITORING CELLS, TISSUES, OR ORGANS-ON-A-CHIP” (University of Rochester, priority 2020, published 2023).

Columns and labels:
tendon fibroblasts = test: Tendon fibroblasts seeded on axially-constrained hydrogel treated with TGF-β1; type: cell-based; conditions: fibroblasts differentiate into myofibroblasts
Description: Subsequently, activation of α-SMA+ve myofibroblasts is evident even after 28 dpi.

[1] = measured plasma drug concentration or target trough, provided by pharmaceutical makers as general guidelines; cited from earlier work
[2] = estimated in rodents in the literature; cited from earlier work
16HBE cells = test: Real-time photonic ring sensor detection of cytokine secretion from 16HBE cells exposed to LPS; type: cell-based, human; conditions: LPS 1 μg/mL in DMEM, 30 μL/min for 3 hours, 37° C.
Procedure: 16HBE cells were seeded on the membrane of the exemplar device and allowed to adhere to the membrane for 3 hours. The device was then connected to a peristaltic pump, which contacted the cells with Dulbecco's Modified Eagles' Medium (DMEM) at a low flow rate (˜30 μL/min) overnight. The next day, the device was set on a temperature-controlled stage (37° C.) and DMEM doped with LPS (at 1 μg/mL) was flowed over the cells (through the top channel) at 30 μL/min for 3 hours. Spectra were measured continuously to observe any shifts in resonance of the photonic ring resonators over time.
FIG. 1F is a graph with a Y axis showing the wavelength of light resonant in the test and the control ring sensors, with longer wavelengths towards the top, and an X axis showing time in seconds following exposure of the cells to LPS. […]
FIG. 1G presents graphs showing the results of subtracting the shifts in the […] (indicating non-specific binding) from that of the […] for two cytokines, IL-6 (left graph) and IL-1B (right-hand graph). […] For the reader's attention, it is noted that the scale of the two graphs is different, with much smaller quantities of cytokine being detected in the right-hand graph. […]

With “TGF-β1: cytokine used to induce myofibroblast differentiation in tendon fibroblasts” the “α-SMA gene (Acta) expression and hydrogel lateral contraction” value (tendon fibroblasts) was “dose-dependent increase”.

In the case of `CO[C@H]1C[C@@H]2CC[C@@H](C)[C@@](O)(O2)C(=O)C(=O)N2CCCC[C@H]2C(=O)O[C@H]([C@H](C)C[C@@H]2CC[C@@H](O)[C@H](OC)C2)CC(=O)[C@H](C)/C=C(\C)[C@@H](O)[C@@H](OC)C(=O)[C@H](C)C[C@H](C)/C=C/C=C/C=C/1C` [Sirolimus], the “Target whole blood trough concentrations (plasma concentrations)” value [1] is listed as 16 to 24 ng/mL.

For `CO[C@H]1C[C@@H]2CC[C@@H](C)[C@@](O)(O2)C(=O)C(=O)N2CCCC[C@H]2C(=O)O[C@H]([C@H](C)C[C@@H]2CC[C@@H](OCCO)[C@H](OC)C2)CC(=O)[C@H](C)/C=C(\C)[C@@H](O)[C@@H](OC)C(=O)[C@H](C)C[C@H](C)/C=C/C=C/C=C/1C` [Everolimus], the “Target whole blood trough concentrations (plasma concentrations)” value [1] is listed as 5 to 15 ng/mL and the ED50 [2] is listed as roughly 0.1 to 2.38 mg/kg.

For Lipopolysaccharide [LPS], the “Time at which secretion of cytokines (IL-6, IL-1β) begins after LPS exposure” value (16HBE cells) was “about 70 minutes”.
